Like-named read-outs stand apart in the source and are kept apart here.
Key:
mouse 9cRDH [1] = biological target: T1, mouse 9cRDH (Mus musculus, UniProt O55240); assay: Hydroxysteroid oxidation/reduction by mouse 9cRDH (TLC); assay type: biochemical; conditions: 37° C., 1.5 h; TLC detection limit approximately 3 pmol/min/mg protein
T1 sequence (O55240 1-318): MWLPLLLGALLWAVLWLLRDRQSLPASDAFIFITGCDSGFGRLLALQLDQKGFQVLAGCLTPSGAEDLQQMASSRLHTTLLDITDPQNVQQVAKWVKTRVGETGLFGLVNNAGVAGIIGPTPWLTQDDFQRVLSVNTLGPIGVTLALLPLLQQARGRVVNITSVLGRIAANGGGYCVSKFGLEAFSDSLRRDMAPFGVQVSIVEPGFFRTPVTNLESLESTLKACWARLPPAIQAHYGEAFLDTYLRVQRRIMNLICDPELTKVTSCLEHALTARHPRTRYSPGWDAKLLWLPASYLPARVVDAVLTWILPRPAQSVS
Method: (§1) To investigate whether human or mouse 9cRDH will catalyze oxidations or reductions of 3α-hydroxy-, 11β-hydroxy- or 17β-hydroxysteroids, these steroids were incubated at 37° C. for 1.5 h in the assay media described above for assessing oxidation/reduction of 9-cis-retinol/9-cis-retinaldehyde. The Hepes NAD^+-containing assay buffer described above was employed to assess hydroxysteroid oxidation and to assess hydroxysteroid reduction the acetate buffer containing NADH (or NADPH) assay buffer (see above) was employed. Immediately following incubation, the steroids were extracted as described above for retinoids. The final hexane extract was evaporated to near dryness and this was spotted onto a silica high performance TLC plate (Whatman Inc., Clifton, N.J.) and developed in hexane/diethyl ether/acetic acid (70:30:1, v/v) or ethyl acetate/chloroform (25:75, v/v). Steroids were visualized by charring after treatment of the TLC plates with an areosol of 10% (v/v) H2SO4 in methanol.
(§2) Biswas and Russell (32) have reported that rat liver all-trans-retinol dehydrogenase type I also uses several 3α-hydroxy- and 17β-hydroxysteroids as substrates. Chai et al. (18) also reported that hydroxysteroids are substrates for mouse liver cis-retinol dehydrogenase. Since human 9cRDH is approximately 50% identical to the rat liver enzymes and shares approximately 63% homology to mouse liver cis-retinol dehydrogenase, next investigated was whether these steroids might also be substrates for 9cRDH. To test this possibility it was determined whether human or mouse 9cRDH would catalyze oxidation of 5α-androstan-3α, 17β-diol, androsterone, testosterone or dihydrotestosterone to corresponding ketone products. Also investigated was whether human and/or mouse 9cRDH could catalyze reduction of the corresponding ketones. […] It is estimate, based on the lower limits for hydroxysteroid detection by TLC, that it would be possible to detect rates of hydroxysteroid oxidation as low as approximately 3 pmol/min/mg protein. This rate of hydroxysteroid oxidation is at least 2-orders of magnitude lower than Vmax values reported by Biswas and Russell (32) and Chai et al. (18) for oxidation of hydroxysteroids in their studies of enzymes that are able to oxidize both retinol and hydroxysteroids.

human 9cRDH = biological target: T2, human 9cRDH (Homo sapiens, UniProt Q92781); assay: Hydroxysteroid oxidation/reduction by human 9cRDH (TLC); assay type: biochemical; conditions: 37° C., 1.5 h; TLC detection limit approximately 3 pmol/min/mg protein
T2 sequence (Q92781 1-318): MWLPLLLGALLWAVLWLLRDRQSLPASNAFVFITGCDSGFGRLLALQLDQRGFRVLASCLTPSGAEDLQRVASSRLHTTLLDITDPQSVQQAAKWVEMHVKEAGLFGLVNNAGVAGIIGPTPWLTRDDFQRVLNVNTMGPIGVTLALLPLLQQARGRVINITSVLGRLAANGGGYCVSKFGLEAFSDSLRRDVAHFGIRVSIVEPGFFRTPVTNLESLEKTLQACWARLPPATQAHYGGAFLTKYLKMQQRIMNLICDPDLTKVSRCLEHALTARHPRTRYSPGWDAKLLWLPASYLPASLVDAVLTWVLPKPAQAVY
Method: as §1, §2

[2] = biological target: T3, human 9-cis retinol dehydrogenase (9cRDH) (Homo sapiens, UniProt Q92781); assay: Inhibition of recombinant human 9cRDH activity (9-cis-retinol oxidation, CHO cell homogenate, HPLC); assay type: biochemical
T3 sequence (Q92781 1-318): T2 sequence (Q92781 1-318)

mouse 9cRDH [3] = biological target: T1, mouse 9cRDH; assay: Inhibition of recombinant mouse 9cRDH activity (9-cis-retinol oxidation, CHO cell homogenate, HPLC); assay type: biochemical; conditions: for inhibition of mouse 9cRDH activity (in words): 10 μM 9-cis-retinol
[4] = Isomerization of retinoic acids in the human 9-cis retinol dehydrogenase assay; assay type: physicochemical; conditions: for 9-cis isomer present at end of assay / 13-cis isomer present at end of assay / all-trans isomer present at end of assay: 37° C., 15 minutes; for final concentration of 13-cis-retinoic acid formed by isomerization: 10 μM retinoic acid, end of the 15 minute assay
Method: Inhibition Studies of 9cRDH Activity. For the inhibition experiments, each potential inhibitor tested was added to the recombinant 9cRDH in 5 μl of ethanol in the presence of 2 mM NAD^+, 10 mM Hepes, pH 8.0, containing 150 mM KCl, 1 mM EDTA, and 50 μg phosphotidyl choline (assay incubation mixture lacking the retinoid substrate). This mixture was allowed to sit on ice for 5 minutes prior to adding substrate. Upon addition of 10 μM 9-cis-retinol (final concentration), the mixture was incubated for 15 minutes at […] with agitation and extracted as described above for the standard enzyme assay. HPLC Procedures. Stereoisomers of both retinol and retinaldehyde were separated on a 4.6×15-mm Supelco (Belefonte, Pa.) LC-SI Supelcosil™ column using hexane:ethyl acetate:butanol (96.9:3:0.1 v/v) as the mobile phase flowing at 0.8 ml/min. A silica guard column (Supelco) preceded the running column. Retinols and retinaldehydes were detected using a Waters 996 Photodiode array detector at absorbances of 325 and 365 nm, respectively. Retention times for all-trans-, 9-cis-, 11-cis-, and 13-cis-retinols and corresponding retinaldehydes were established using the purified compounds obtained as described above. Quantities of each retinol and retinaldehyde isomer present in extracts were determined by comparisons of the integrated areas under the HPLC peaks with a standard curve constructed relating integrated peak area with known masses of each retinoid isomer. The concentration of each retinoid isomer were determined by UV-visible spectrophotometry using published extinction coefficients for each retinol, retinaldehyde or retinoic acid isomer (25).
To test this possibility, the degree of isomerization of retinoic acid which occurs under the assay conditions was measured.

[5] = biological target: rat liver and human prostate 17β-hydroxysteroid dehydrogenase (identical to retinol dehydrogenase, type I); conditions: cited from earlier work
[6] = animals and humans receiving 13-cis-retinoic acid pharmacologically; cited from earlier work
visual cycle = conditions: administration to frogs; cited from earlier work
[7] = biological target: human alcohol dehydrogenase type IV (Homo sapiens, UniProt P40394); conditions: cited from earlier work
[8] = 10 μM steroid, equimolar to substrate, forward (retinol oxidation) or reverse (retinaldehyde reduction) direction
[9] = 1 μM 13-cis Retinoic Acid at start

Sequence of human alcohol dehydrogenase type IV (P40394 whole entry): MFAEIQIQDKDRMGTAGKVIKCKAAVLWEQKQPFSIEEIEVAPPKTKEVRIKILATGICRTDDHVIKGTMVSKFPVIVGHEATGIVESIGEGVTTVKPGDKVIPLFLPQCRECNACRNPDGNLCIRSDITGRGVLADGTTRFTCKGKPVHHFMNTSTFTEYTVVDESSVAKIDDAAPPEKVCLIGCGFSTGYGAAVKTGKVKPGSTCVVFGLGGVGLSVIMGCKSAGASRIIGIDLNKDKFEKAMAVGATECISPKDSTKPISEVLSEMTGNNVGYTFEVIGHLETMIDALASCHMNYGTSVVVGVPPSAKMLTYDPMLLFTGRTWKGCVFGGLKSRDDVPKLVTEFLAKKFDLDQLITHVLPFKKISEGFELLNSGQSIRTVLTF

C[C@]12CCC(=O)C[C@@H]1CC[C@@H]1[C@@H]2CC[C@]2(C)[C@@H](O)CC[C@@H]12 [5α-androstan-17βol-3one]
catalysis by mouse 9cRDH of hydroxysteroid oxidation to ketone products (or reduction of the corresponding ketones) (mouse 9cRDH [1]): Neither human nor mouse 9cRDH were found to catalyze | catalysis by human 9cRDH of hydroxysteroid oxidation to ketone products (or reduction of the corresponding ketones) (human 9cRDH): Neither human nor mouse 9cRDH were found to catalyze | inhibition of human 9cRDH activity by hydroxysteroids [2]: none of these hydroxysteroids inhibited | inhibition of mouse 9cRDH activity by hydroxysteroids (mouse 9cRDH [3]): none of these hydroxysteroids inhibited

C[C@]12CC[C@@H](O)C[C@@H]1CC[C@@H]1[C@@H]2CC[C@]2(C)[C@@H](O)CC[C@@H]12 [5α-androstane-3α, 17βdiol]
catalysis by mouse 9cRDH of hydroxysteroid oxidation to ketone products (or reduction of the corresponding ketones) (mouse 9cRDH [1]): Neither human nor mouse 9cRDH were found to catalyze | catalysis by human 9cRDH of hydroxysteroid oxidation to ketone products (or reduction of the corresponding ketones) (human 9cRDH): Neither human nor mouse 9cRDH were found to catalyze | inhibition of human 9cRDH activity by hydroxysteroids [2, 8]: none of these hydroxysteroids inhibited | inhibition of mouse 9cRDH activity by hydroxysteroids (mouse 9cRDH [3]; [8]): none of these hydroxysteroids inhibited

CC1=C(/C=C/C(C)=C\C=C\C(C)=C\C(=O)O)C(C)(C)CCC1 [9-cis Retinoic Acid, 9-cis-retinoic acid]
times (fold) less potent than 13-cis retinoic acid as inhibitor of 9cRDH [2]: 18 | inhibition of human 9cRDH activity (in words) ([2]; 10 μM 9-cis-retinol, listed as 9-cis retinoic acid): potent inhibitors | inhibition of human 9cRDH activity (in words) ([2]; 10 μM 9-cis-retinol, listed as 9-cis-retinoic acid): very potent inhibitors | inhibition of 9cRDH activity ([2]; 10 μM retinoic acid): 81% | inhibition of mouse 9cRDH activity (in words) (mouse 9cRDH [3]): very potent inhibitors | 9-cis isomer present at end of assay ([4]; 10 μM retinoic acid at start): 94.7% | 13-cis isomer present at end of assay ([4]; 10 μM retinoic acid at start): 1.1% | all-trans isomer present at end of assay ([4]; 10 μM retinoic acid at start): 4.2% | 13-cis isomer present at end of assay ([4]; 10 μM retinoic acid at start, listed as 9-cis-retinoic acid): ~1.1% | final concentration of 13-cis-retinoic acid formed by isomerization [4]: approximately 0.1 μM | Ki [5]: 400 nM

CC1=C(/C=C/C(C)=C/C=C/C(C)=C\C(=O)O)C(C)(C)CCC1 [13-cis Retinoic Acid, 13-cis-retinoic acid]
concentrations reached in the blood and tissues [6]: ≥ 10 µM | concentration at which human 9cRDH is potently inhibited [2]: 0.05 µM | expected inhibition of h9cRDH activity ([2]; 0.1 μM 13-cis-retinoic acid present for the full 15 minute incubation): 40–50% | inhibition of human 9cRDH activity (in words) ([2]; 10 μM 9-cis-retinol, listed as 13-cis retinoic acid): potent inhibitors | inhibition of human 9cRDH activity (in words) ([2]; 10 μM 9-cis-retinol, listed as 13-cis-retinoic acid): very potent inhibitors | block of the visual cycle in vivo (in words) (visual cycle): block the visual cycle | inhibition of purified human alcohol dehydrogenase type IV (in words) [7]: in vitro inhibition | concentration at which mouse 9cRDH is potently inhibited (mouse 9cRDH [3]): 0.05 µM | inhibition of mouse 9cRDH activity (in words) (mouse 9cRDH [3]): very potent inhibitors | IC50 (mouse 9cRDH [3]; substrate concentration 10 μM, read-out: Inhibitor concentration giving approximately 50% inhibition of m9cRDH activity): ~150 nM | 13-cis isomer present at end of assay [4, 9]: 98.4% | all-trans isomer present at end of assay [4, 9]: 1.6% | Ki [5]: 4000 nM

CC1=C(/C=C/C(C)=C/C=C/C(C)=C/C(=O)O)C(C)(C)CCC1 [all-trans Retinoic Acid, all-trans-retinoic acid]
times (fold) less potent than 13-cis retinoic acid as inhibitor of 9cRDH [2]: 30 | IC50 ([2]; 10 μM 9-cis-retinol, 15 min, 37° C., CHO cell homogenate, read-out: Estimated inhibitor concentration resulting in 50% inhibition of human 9-cis retinol dehydrogenase activity (ID50)): 4.6 µM | inhibition of human 9cRDH activity (in words) ([2]; 10 μM 9-cis-retinol, listed as all-trans retinoic acid): potent inhibitors | inhibition of human 9cRDH activity (in words) ([2]; 10 μM 9-cis-retinol, listed as all-trans-retinoic acid): very potent inhibitors | inhibition at 10 µM ([2]; 10 μM retinoic acid): 66% | block of the visual cycle in vivo (in words) (visual cycle): block the visual cycle | inhibition of mouse 9cRDH activity (in words) (mouse 9cRDH [3]): very potent inhibitors | 9-cis isomer present at end of assay ([4]; 10 μM retinoic acid at start): 0.4% | 13-cis isomer present at end of assay ([4]; 10 μM retinoic acid at start): 0.8% | all-trans isomer present at end of assay ([4]; 10 μM retinoic acid at start): 98.8% | 13-cis isomer present at end of assay ([4]; 10 μM retinoic acid at start, listed as all-trans-retinoic acid): approximately 1% | final concentration of 13-cis-retinoic acid formed by isomerization [4]: approximately 0.1 μM

C[C@]12CC[C@@H](O)C[C@@H]1CC[C@@H]1[C@@H]2CC[C@]2(C)C(=O)CC[C@@H]12 [androsterone]
catalysis by mouse 9cRDH of hydroxysteroid oxidation to ketone products (or reduction of the corresponding ketones) (mouse 9cRDH [1]): Neither human nor mouse 9cRDH were found to catalyze | catalysis by human 9cRDH of hydroxysteroid oxidation to ketone products (or reduction of the corresponding ketones) (human 9cRDH): Neither human nor mouse 9cRDH were found to catalyze | inhibition of human 9cRDH activity by hydroxysteroids [2]: none of these hydroxysteroids inhibited | inhibition of mouse 9cRDH activity by hydroxysteroids (mouse 9cRDH [3]): none of these hydroxysteroids inhibited

C[C@]12CC[C@H]3[C@@H](CCC4=CC(=O)CC[C@@]43C)[C@@H]1CC[C@@H]2O [testosterone]
catalysis by mouse 9cRDH of hydroxysteroid oxidation to ketone products (or reduction of the corresponding ketones) (mouse 9cRDH [1]): Neither human nor mouse 9cRDH were found to catalyze | catalysis by human 9cRDH of hydroxysteroid oxidation to ketone products (or reduction of the corresponding ketones) (human 9cRDH): Neither human nor mouse 9cRDH were found to catalyze | inhibition of human 9cRDH activity by hydroxysteroids [2, 8]: none of these hydroxysteroids inhibited | inhibition of mouse 9cRDH activity by hydroxysteroids (mouse 9cRDH [3]; [8]): none of these hydroxysteroids inhibited

From patent publication US7186534B1 (The Trustees of Columbia University in the City of New York, priority 1997, dated 2007)
